Results as given in patent US9090586B2, “Heterocyclic compound” (TAKEDA PHARMACEUTICAL COMPANY LIMITED, priority 2010, dated 2015).
pIC50: −log10 of the molar value.

Legend:
human PDE10A enzyme = target: T1, human PDE10A enzyme (Homo sapiens, UniProt Q9Y233); experiment: PDE10A enzyme activity inhibition test (SPA); assay type: biochemical; details: for pIC50: [3H]cGMP substrate; for inhibition at 0.1 µM: read-out: Inhibition rate (%) (100 nM)
T1 construct: Human PDE10A full-length gene was transfected into Sf9 or COS-7 cells; His-tag; made in house; host or cells: Sf9 or COS-7 cells
T1 sequence (Q9Y233 267-1055): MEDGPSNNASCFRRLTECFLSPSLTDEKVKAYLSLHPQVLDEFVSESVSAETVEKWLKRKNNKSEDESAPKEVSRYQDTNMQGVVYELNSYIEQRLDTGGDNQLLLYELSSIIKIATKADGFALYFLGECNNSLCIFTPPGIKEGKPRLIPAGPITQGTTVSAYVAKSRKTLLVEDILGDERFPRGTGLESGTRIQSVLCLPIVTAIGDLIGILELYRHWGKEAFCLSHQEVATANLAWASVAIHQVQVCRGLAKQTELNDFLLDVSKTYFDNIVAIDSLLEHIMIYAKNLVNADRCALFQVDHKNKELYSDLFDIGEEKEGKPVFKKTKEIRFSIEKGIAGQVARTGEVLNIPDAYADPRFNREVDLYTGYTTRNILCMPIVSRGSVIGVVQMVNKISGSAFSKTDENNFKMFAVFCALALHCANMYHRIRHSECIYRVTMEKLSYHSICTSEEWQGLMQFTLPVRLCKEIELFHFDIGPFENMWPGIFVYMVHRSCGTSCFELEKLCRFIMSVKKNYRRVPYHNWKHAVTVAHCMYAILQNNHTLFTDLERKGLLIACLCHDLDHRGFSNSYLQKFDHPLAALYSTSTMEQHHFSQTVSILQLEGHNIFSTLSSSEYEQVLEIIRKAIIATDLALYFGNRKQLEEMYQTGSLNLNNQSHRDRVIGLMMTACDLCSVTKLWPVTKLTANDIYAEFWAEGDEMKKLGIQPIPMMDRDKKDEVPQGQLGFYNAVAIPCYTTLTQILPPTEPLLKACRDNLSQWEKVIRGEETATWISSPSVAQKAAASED
Description: Human PDE10A full-length gene was transfected into Sf9 or COS-7 cells, the cells were disrupted and centrifuged, and human PDE10A enzyme was obtained from the residue. The enzyme extracted from Sf9 cells was partially purified using His-tag affinity column. The enzyme was stored at −70° C. until use. The PDE activity was measured using an SPA (Scintillation Proximity Assay) (GE Healthcare). To measure the inhibitory activity of the compound, 10 μL of serially diluted compound was reacted with 20 μL of PDE enzyme in an assay buffer (50 mM HEPES-NaOH, 8.3 mM MgCl2, 1.7 mM EGTA, 0.1% BSA (pH 7.4)) […] at room temperature. The final concentration of DMSO in the reaction mixture was 1 percent. The compounds were evaluated in duplicate in 96-well half-area plates (Corning). To start the reaction, 10 μL of substrate [^3H] cGMP (25 and 50 nM; GE Healthcare and PerkinElmer, respectively) was added to 40 μL. After 60 min of reaction at room temperature, yttrium SPA beads containing zinc sulphate were added (6 mg/mL, 20 μL) to terminate the PDE reaction. After standing still for 1 hr, the measurement was performed using a scintillation counter (PerkinElmer) and the PDE10A enzyme activity inhibition rate was calculated. The inhibition rate was calculated based on the control containing enzyme and DMSO as 0% and the control without enzyme as 100%.

`COc1cn(-c2ccc(-n3cccn3)cc2F)nc(-c2ccnn2CC(F)(F)F)c1=O` [Example 6, 1-[2-fluoro-4-(1H-pyrazol-1-yl)phenyl]-5-methoxy-3-[1-(2,2,2-trifluoroethyl)-1H-pyrazol-5-yl]pyridazin-4(1H)-one] gave a melting point of 185 to 187 °C.
`COc1cn(-c2ccc(-n3cc(F)c(F)c3)cc2O)nc(-c2ccnn2-c2ccccc2)c1=O` [Example 11, 1-[4-(3,4-difluoro-1H-pyrrol-1-yl)-2-hydroxyphenyl]-5-methoxy-3-(1-phenyl-1H-pyrazol-5-yl)pyridazin-4(1H)-one] showed a melting point of 241 to 243 °C.
With `COc1cn(-c2cnn(C(C)C3CC3)c2)nc(-c2ccnn2-c2ccccc2)c1=O` (single isomer, unassigned) [Example 45, 1-[1-(1-cyclopropylethyl)-1H-pyrazol-4-yl]-5-methoxy-3-(1-phenyl-1H-pyrazol-5-yl)pyridazin-4(1H)-one] the “Inhibition rate (%) (100 nM)” value (human PDE10A enzyme; 100 nM compound, 0.1 µM) was 100% and the pIC50 (human PDE10A enzyme) was at least 8.00.
For `COc1cc(N2CC(F)(F)C(F)(F)C2)ccc1-n1cc(OC)c(=O)c(-c2ccnn2-c2ccccc2)n1` [Example 15, 5-methoxy-1-[2-methoxy-4-(3,3,4,4-tetrafluoropyrrolidin-1-yl)phenyl]-3-(1-phenyl-1H-pyrazol-5-yl)pyridazin-4(1H)-one], the inhibition at 0.1 µM (human PDE10A enzyme; 100 nM compound) was 99% and the pIC50 (human PDE10A enzyme) was at least 8.00.
`COc1cc(-n2cc(F)c(F)c2)ccc1-n1cc(OC)c(=O)c(-c2ccnn2-c2ccccc2)n1` [Example 12, 1-[4-(3,4-difluoro-1H-pyrrol-1-yl)-2-methoxyphenyl]-5-methoxy-3-(1-phenyl-1H-pyrazol-5-yl)pyridazin-4(1H)-one] gave an inhibition at 0.1 µM (human PDE10A enzyme; 100 nM compound) of 100% and a pIC50 (human PDE10A enzyme) of at least 8.00.
